Key:
Test in all cases: fluorescence, kynuramine to 4-hydroxyquinoline
Format in all cases: biochemical
MAO-A = molecular target: T1, MAO-A (Homo sapiens, UniProt P21397)
T1 construct: gene MAOA; human recombinant enzyme
T1 sequence (P21397 1-527): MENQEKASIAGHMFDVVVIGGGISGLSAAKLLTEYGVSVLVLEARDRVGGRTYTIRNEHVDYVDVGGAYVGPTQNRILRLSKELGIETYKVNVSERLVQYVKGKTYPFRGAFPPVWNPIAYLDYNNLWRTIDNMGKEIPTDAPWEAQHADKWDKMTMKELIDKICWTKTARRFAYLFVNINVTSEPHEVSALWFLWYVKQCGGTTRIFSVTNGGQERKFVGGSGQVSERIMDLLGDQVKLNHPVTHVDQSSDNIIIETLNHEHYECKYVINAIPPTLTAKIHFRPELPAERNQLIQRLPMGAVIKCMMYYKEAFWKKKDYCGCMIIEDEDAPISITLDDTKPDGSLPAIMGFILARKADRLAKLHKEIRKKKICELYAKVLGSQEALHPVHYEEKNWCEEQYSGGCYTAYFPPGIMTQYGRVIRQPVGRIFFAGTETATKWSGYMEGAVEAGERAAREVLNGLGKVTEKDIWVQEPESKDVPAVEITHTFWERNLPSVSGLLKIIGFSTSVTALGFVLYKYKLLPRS

MAO-B [1] = molecular target: T2, MAO-B (Homo sapiens, UniProt P27338)
T2 construct: gene MAOB; human recombinant enzyme
T2 sequence (P27338 2-520): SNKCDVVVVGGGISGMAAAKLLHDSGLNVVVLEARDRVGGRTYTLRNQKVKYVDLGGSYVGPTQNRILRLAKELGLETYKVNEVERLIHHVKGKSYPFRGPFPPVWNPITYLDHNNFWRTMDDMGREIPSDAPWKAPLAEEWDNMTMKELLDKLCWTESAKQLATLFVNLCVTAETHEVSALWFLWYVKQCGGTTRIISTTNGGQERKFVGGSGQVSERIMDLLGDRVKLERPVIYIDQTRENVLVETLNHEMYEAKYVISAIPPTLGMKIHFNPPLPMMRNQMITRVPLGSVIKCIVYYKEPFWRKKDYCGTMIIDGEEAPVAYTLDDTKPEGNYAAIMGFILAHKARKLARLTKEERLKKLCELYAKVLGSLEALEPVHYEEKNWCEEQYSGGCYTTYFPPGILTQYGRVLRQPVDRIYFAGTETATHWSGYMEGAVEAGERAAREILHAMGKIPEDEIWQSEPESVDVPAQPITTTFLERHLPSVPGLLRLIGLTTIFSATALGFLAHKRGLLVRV

MAO-B [2] = molecular target: T2, MAO-B; settings: read-out: % inhibition at 1000 μM
Text: fluorescence, kynuramine to 4-hydroxyquinoline on MAO-B

SMILES	IC50 (MAO-A) [µM]	IC50 (MAO-B [1]) [µM]	inhibition at 1000 µM (MAO-B [2]) [%]
O=c1c(O[C@@H]2O[C@H](CO)[C@H](O)[C@H](O)[C@H]2O)c(-c2ccc(O)cc2)oc2cc(O)cc(O)c12 [compound 2, trifolin]	578.4 ± 2.01	860.7 ± 3.7	
C[C@@H]1O[C@@H](O[C@H]2[C@H](Oc3c(-c4ccc(O)cc4)oc4cc(O)cc(O)c4c3=O)O[C@H](CO)[C@@H](O)[C@@H]2O)[C@H](O)[C@H](O)[C@H]1O [compound 3, kaempferol-3-neohesperidoside]	108.9 ± 0.21	242.2 ± 0.78	
OCCc1ccc(O[C@@H]2O[C@H](CO)[C@@H](O)[C@H](O)[C@H]2O)cc1 [compound 4, icariside D2]	584 ± 11.8		43.5 ± 5.2
CC[C@H](CC[C@@H](C)[C@H]1CC[C@H]2[C@@H]3CC=C4C[C@@H](O)CC[C@]4(C)[C@H]3CC[C@]12C)C(C)C [compound 5, β-sitosterol]	2.8 ± 0.13		20.7 ± 1.8

From article PMC11723358, “Nelumbo nucifera Petals Ameliorate Depressive-like Symptom and Cognitive Deficit in Unpredictable Chronic Mild Stress Mouse Model” (Nutrients, 2024)
